In patent publication US9273290B2, “Method for producing phosphite dehydrogenase protein and use thereof” (HIROSHIMA UNIVERSITY, priority 2011, dated 2016):
“And” between values parts separate entries of the source, which are not always exact repeats. Equal entries are not always repeated.

Assays:
[1] = biological target: T1, Ralstonia sp. strain 4506 phosphite dehydrogenase, SEQ ID NO: 1, C-terminal His tag fusion (PtxD4506) (Ralstonia sp. 4506, UniProt G4XDR8); experiment: Activity of phosphite dehydrogenase protein in the presence of inhibitor; type: biochemical; details: 45° C., 60 minutes; for relative value of OD340 (activity in the presence of inhibitor, control = 100): 50 μL of 40 mM inhibitor in the reaction solution (500 μL in total); for activity in the presence of inhibitor (in words): 50 μL of 40 mM inhibitor in the reaction solution
T1 sequence (G4XDR8 1-336): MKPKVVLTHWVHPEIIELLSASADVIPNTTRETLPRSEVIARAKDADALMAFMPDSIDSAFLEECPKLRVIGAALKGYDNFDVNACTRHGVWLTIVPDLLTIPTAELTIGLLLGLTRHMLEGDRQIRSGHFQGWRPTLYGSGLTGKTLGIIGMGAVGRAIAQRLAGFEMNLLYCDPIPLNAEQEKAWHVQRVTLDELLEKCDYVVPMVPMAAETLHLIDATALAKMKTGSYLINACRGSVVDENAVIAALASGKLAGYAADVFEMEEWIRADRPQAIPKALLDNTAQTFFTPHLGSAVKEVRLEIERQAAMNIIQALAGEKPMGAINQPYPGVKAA
Text: (§1) By a well-known method, the base sequence of SEQ ID NO: 2 or a phosphite dehydrogenase gene (SEQ ID NO: 4) of P stutzeri WM88 was inserted into a plasmid pET21b (produced by Novagen) (an amino acid sequence of the protein encoded by the base sequence of SEQ ID NO: 4 is shown in SEQ ID NO: 3) to prepare (i) an expression vector of a fusion protein (see “PtxD4506” in FIG. 2) in which the C-terminal of the phosphite dehydrogenase protein of SEQ ID NO: 1 is labeled with a His tag or (ii) an expression vector of a fusion protein (see “PtxDPst” in FIG. 2) in which the C-terminal of the phosphite dehydrogenase protein of P stutzeri WM88 is labeled with a His tag.
(§2) The supernatant was supplied to a HisTrap column (produced by GE Healthcare) and, in accordance with protocols attached to the HisTrap column, a fusion protein in which a His tag was connected to the C-terminal of the phosphite dehydrogenase protein of SEQ ID NO: 1 was purified.
(§3) PtxD4506 and PtxDPst, which were purified with use of the HisTrap column in [3. […] An experimental method was based on a method described in the literature “Costas et al., Journal of Biological Chemistry, 2001, 276, 17429-17436.” The experimental method is briefly described below.
(§4) A reaction solution was prepared by mixing 100 μL of 100 mM MOPS-KOH (pH 7.25), 50 μL of 10 mM NAD, 5 μL of 5 mM phosphite, 50 μL of 40 mM inhibitor of various kinds (arsenite, nitrate, sulfate, or NaCl), 294 μL of H2O, and 1 μL of 0.5 mg/mL protein-containing solution (a PtxD4506-containing solution, a PtxDPst-containing solution, or a liquid which contained no protein (negative control)).
(§5) The reaction solution was reacted for 60 minutes. Note that the reaction solution containing the PtxD4506-containing solution was reacted at 45° C., and the reaction solution containing the PtxDPst-containing solution was reacted at 30° C. Subsequently, OD340 was measured. A relative value of OD340 of each sample was calculated relative to 100 of a value of OD340 of the reaction solution containing the liquid which contained no protein (negative control). Note that each experiment was conducted 4 times or more, and an average of relative values obtained in the 4 or 5 experiments was also calculated.

[2] = biological target: T2, Pseudomonas stutzeri WM88 phosphite dehydrogenase, wild type, SEQ ID NO: 3, C-terminal His tag fusion (PtxDPst) (Stutzerimonas stutzeri, UniProt O69054); experiment: as above; type: biochemical; design: key to relative value of OD340 (activity in the presence of inhibitor, control = 100): OD340 relative to no-protein negative control = 100; details: 30° C., 60 minutes; for relative value of OD340 (activity in the presence of inhibitor, control = 100): 50 μL of 40 mM inhibitor in the reaction solution (500 μL in total); for activity in the presence of inhibitor (in words): 50 μL of 40 mM inhibitor in the reaction solution
T2 construct: His tag (C); made in house; host or cells: E. coli Rosetta2 (DE3), plasmid pET21b
T2 sequence (O69054 1-336): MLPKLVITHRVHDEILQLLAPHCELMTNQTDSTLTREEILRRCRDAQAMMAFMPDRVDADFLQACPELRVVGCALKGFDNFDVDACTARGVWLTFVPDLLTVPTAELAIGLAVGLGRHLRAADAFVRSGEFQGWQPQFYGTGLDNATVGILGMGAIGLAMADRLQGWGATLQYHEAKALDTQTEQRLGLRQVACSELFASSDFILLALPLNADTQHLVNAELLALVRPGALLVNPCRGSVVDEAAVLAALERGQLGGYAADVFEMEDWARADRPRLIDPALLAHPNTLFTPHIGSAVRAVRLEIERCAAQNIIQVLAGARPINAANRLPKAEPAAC
Text: as §1, §2, §3, §4, §5

[3] = biological target: T1, Ralstonia sp. strain 4506 phosphite dehydrogenase, SEQ ID NO: 1, C-terminal His tag fusion (PtxD4506); experiment: Reaction kinetic analysis: NADH production rate at varied NAD+ concentration
[4] = biological target: T2, Pseudomonas stutzeri WM88 phosphite dehydrogenase, wild type, SEQ ID NO: 3, C-terminal His tag fusion (PtxDPst); experiment: as above; type: biochemical; details: NAD+ 0.5 μM to 200 μM, 28° C., individual experiments 1-3
Text: as §1
The supernatant was supplied to a HisTrap column (produced by GE Healthcare) and, in accordance with protocols attached to the HisTrap column, a fusion protein in which a His tag was connected to the C-terminal of the phosphite dehydrogenase protein of SEQ ID NO: 1 was purified. […]
Reaction rates of respective PtxD4506 and PtxDPst were calculated on the basis of (Reaction formula 1) shown in the section [Background Art].
Specifically, in the reaction system of (Reaction formula 1), a production rate of NADH was measured with use of 7.5 μg of each of the fusion proteins PtxD4506 and PtxDPst while a concentration of a substrate (NAD^+) was gradually changed from 0.5 μM to 200 μM. […]

[5] = pH 7.25, average of 4 or 5 experiments
[6] = pH 7.25, individual experiments 1-5
[7] = NAD+ 0.5 μM to 200 μM, 40° C., individual experiments 1-3

| SMILES | relative value of OD340 (activity in the presence of inhibitor, control = 100) [1, 5] | relative value of OD340 (activity in the presence of inhibitor, control = 100) [1, 6] | activity in the presence of inhibitor (in words) [1] | relative value of OD340 (activity in the presence of inhibitor, control = 100) [2, 5] | relative value of OD340 (activity in the presence of inhibitor, control = 100) [2, 6] | activity in the presence of inhibitor (in words) [2] | Kcat [3, 7] | Vmax [3, 7] | Vmax of PtxD4506 relative to that of PtxDPst ([3]; NAD+, PtxD4506 at 40° C., PtxDPst at 28° C.) | Kcat [4] | Vmax [4] |
| --- | --- | --- | --- | --- | --- | --- | --- | --- | --- | --- | --- |
| O[As](O)O [Arsenite] | 101.6 | 102.6 and 102.2 and 101.7 and 101.3 and 100.2 | maintained in a high level | 86.6 | 82.3 and 90.4 and 88.6 and 91.4 and 90.7 | inhibited | – | – | – | – | – |
| NC(=O)c1ccc[n+]([C@@H]2O[C@H](COP(=O)([O-])OP(=O)(O)OC[C@H]3O[C@@H](n4cnc5c(N)ncnc54)[C@H](O)[C@@H]3O)[C@@H](O)[C@H]2O)c1 [NAD+] | – | – | – | – | – | – | 4.262 s⁻¹ and 4.068 s⁻¹ and 3.54 s⁻¹ | 6.4 µmol/min/mg and 6.1 µmol/min/mg and 5.3 µmol/min/mg | about 1.4 times | 3.235 s⁻¹ and 2.732 s⁻¹ and 2.513 s⁻¹ | 4.9 µmol/min/mg and 4.1 µmol/min/mg and 3.8 µmol/min/mg |
| O=[N+]([O-])O [Nitrate] | 35.7 | 29.2 and 39.6 and 40.2 and 40.3 and 29.3 | maintained in a high level | 18.3 | 15.3 and 21.8 and 20.3 and 20.1 and 14.0 | inhibited | – | – | – | – | – |
| N.N.O=S(O)O [Sulfite] | 52.5 | 53.2 and 58.8 and 57.0 and 40.9 | – | 14.0 | 15.4 and 15.3 and 16.2 and 9.2 | – | – | – | – | – | – |
| O=S(=O)(O)O [sulfate] | – | – | maintained in a high level | – | – | inhibited | – | – | – | – | – |
